Tests used:
[1] = test system: IK current in DRG neurons; assay: Delayed inward rectifier potassium current (IK) in DRG neurons; assay type: cell-based, C57BL/6 mouse
Source text: (§1) A 4- to 6-week old C57BL/6 mouse (Shanghai Slack Experimental Animal Co., Ltd.) was used for acute isolation of dorsal root ganglion neurons. First, the mouse was sacrificed by breaking the neck, and the surface skin was disinfected with 75% alcohol. The skin was cut from the neck to the buttocks, and the spine from the neck to the waist was cut, and placed in a pre-cooled phosphate buffer (PBS) (Hyclone Company) after excess muscles and blood clots were removed. The spine was cut longitudinally along the midline, and the white spinal cord and blood clots in the middle were removed by ophthalmic tweezers to expose the intervertebral foramen. The dorsal root ganglia were taken out by fine forceps, wherein the large ganglia at the waist should be stripped of their fibrous connections. Then the ganglia were cut into small pieces with microdissection scissors, added to 1 mL of a mixture of collagenase (1 mg/mL) and trypsin (0.25 mg/mL) (Sigma-Aldrich Company) for digestion for 15 min. […]
(§2) The data were processed through Clampfit 10.2, and imported into an Excel table for statistics, and then sorted and analyzed for their significant differences through GraphPad Prim5 software. […] All electrophysiological experiment data were expressed as mean±standard error (mean±S.E.M.).

[2] = test system: dorsal root ganglion (DRG) neurons; assay: Evoked action potential firing in dorsal root ganglion neurons (whole-cell patch clamp); assay type: cell-based, C57BL/6 mouse; details: 10 μM; 200 pA, 500 ms current stimulation; FIG. 1 C and D
Source text: as §1, with “min. Then a DMEM/F12 culture medium (Gibco Company) supplemented with 10% fetal calf serum was added thereto to terminate the digestion and dilute the resultant. The cells were pipetted repeatedly, and large tissue blocks were filtered out with a […] cell filter. The remaining liquid was inoculated into a glass slide pre-coated with poly-lysine (Sigma-Aldrich), and cultured in an incubator at 5% CO2 and 37° C.” for “min.”

[3] = target: T1, Kv2.1 channel (Homo sapiens, UniProt Q14721); assay: Kv2.1 channel current, transiently expressed in CHO-K1 cells (patch clamp); assay type: cell-based; details: 10 μM, FIG. 5 A and B
T1 construct: expressed in transfected cells; host or cells: CHO-K1 cells (ATCC), transient co-transfection with EGFP plasmid at 9:1
T1 sequence (Q14721 1-858): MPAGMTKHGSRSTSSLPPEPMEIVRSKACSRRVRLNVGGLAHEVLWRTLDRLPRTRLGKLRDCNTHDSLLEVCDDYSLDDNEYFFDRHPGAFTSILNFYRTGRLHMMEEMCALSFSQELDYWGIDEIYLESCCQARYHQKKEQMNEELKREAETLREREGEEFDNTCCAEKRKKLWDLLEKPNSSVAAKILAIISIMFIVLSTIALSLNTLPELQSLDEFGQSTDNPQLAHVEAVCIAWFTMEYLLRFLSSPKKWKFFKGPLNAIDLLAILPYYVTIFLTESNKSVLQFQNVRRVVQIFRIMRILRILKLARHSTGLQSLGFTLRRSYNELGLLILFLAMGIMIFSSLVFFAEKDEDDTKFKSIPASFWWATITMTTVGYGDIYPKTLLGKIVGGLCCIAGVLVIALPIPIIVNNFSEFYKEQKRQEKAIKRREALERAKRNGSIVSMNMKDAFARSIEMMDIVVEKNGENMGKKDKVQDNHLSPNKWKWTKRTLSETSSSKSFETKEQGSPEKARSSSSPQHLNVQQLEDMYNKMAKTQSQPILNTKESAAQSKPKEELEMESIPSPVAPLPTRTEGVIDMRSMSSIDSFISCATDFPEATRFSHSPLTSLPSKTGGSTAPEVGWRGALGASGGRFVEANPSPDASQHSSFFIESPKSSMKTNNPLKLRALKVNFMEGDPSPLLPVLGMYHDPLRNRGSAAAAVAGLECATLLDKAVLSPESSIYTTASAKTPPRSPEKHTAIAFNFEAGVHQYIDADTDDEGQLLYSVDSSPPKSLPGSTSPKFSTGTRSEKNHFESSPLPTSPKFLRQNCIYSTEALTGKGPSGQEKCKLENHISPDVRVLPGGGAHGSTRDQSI
Source text: (§3) First, TRESK plasmid (a kind gift from Professor Min LI of Johns Hopkins University) and Kv2.1 plasmid (a kind gift from Professor Min LI of Johns Hopkins University) were each co-transfected into CHO-K1 cells (ATCC) with green fluorescent protein EGFP plasmid (a kind gift from Professor Jia LI of SHANGHAI INSTITUTE OF MATERIA MEDICA, CHINESE ACADEMY OF SCIENCES) at a ratio of 9:1, and the cells with green fluorescence were selected under a fluorescence microscope to perform the experiments. The cells were clamped at −70 m V, first hyperpolarized to −130 mV, given a ramp depolarization stimulus to 20 mV, maintained for 100 ms, and then hyperpolarized to 0 mV to record the potassium channel current. 10 μM HJ-70 was administered by perfusion to test the drug efficacy thereof.

[4] = test system: formaldehyde-induced inflammatory pain; assay: Formalin-induced mouse inflammatory pain model; assay type: in vivo; details: mice, intraperitoneal injection 30 minutes before 1% formaldehyde; 60 minutes observation
Experimental: A 10% formaldehyde solution was diluted 10 times to prepare a 1% formaldehyde solution. 5% DMSO, 5% Tween-80 and 90% normal saline (a 0.9% NaCl solution) were used to prepare solutions of HJ-70 in 100 mg/kg and 30 mg/kg. Each mouse was administered at a dose of 0.2 mL/10 g at 30 minutes before the experiment, and then 20 μL of 1% formaldehyde solution was injected into the sole of the foot through a microsampling needle to create a formalin model. The number of licking of hind paws, flicking of hind paws, and paw lifting, and the time of paw licking and prolonged paw lifting were recorded within 60 minutes. Paw licking was scored as 3, paw flicking was scored as 2, and paw lifting was scored as 1. The pain behavior score and time were calculated to determine the analgesic activity of HJ-70.

[5] = test system: hippocampal neurons; assay: Spontaneous firing of cultured hippocampal neurons (patch clamp); assay type: cell-based, SD rats; details: 10 μM, FIG. 1 A and B
Experimental: (§4) Whole-cell patch clamp recording was performed through a digital-to-analog converter, the Digidata 1440A (Axon CNS), and a patch clamp amplifier, the Axon patch 700B (Molecular Devices), and the borosilicate glass electrode used in the manual patch clamp experiment was pulled by a Sutter-P1000 electrode puller (Sutter) with a resistance about 3 MΩ. The bath solution was continuously perfused in speed of about 2 mL/min using a BPS perfusion system.
Enzyme and termination solutions with the same concentration were prepared with PBS. 90% DMEM/F12 supplemented with 10% FBS, neuron culture medium (2% B-27, 1% penicillin and streptomycin mixture, Neurobasal-A supplemented with 0.5 mM 1% GlutaMAX), and enzyme and termination solutions (all purchased from Gibco) were preheated in advance. The slides were coated in a 24-well plate in advance with 20 μg/mL polylysine. All operations were performed in a biological safety cabinet. 3 newly born SD rats that were 1-3 days old were taken out the hippocampus according to the above method. The hippocampus was cut into pieces with microdissecting scissors and digested for 8 minutes in the enzyme solution, which was slightly shaken every 2-3 minutes to make the digestion even. […] The suspension was counted on a cell counter, and adjusted to a final concentration of 10^5 cells/mL. […]

[6] = test system: IK current of hippocampal neurons; assay: Delayed inward rectifier potassium current (IK) in hippocampal neurons; assay type: cell-based, SD rats; details: 1, 3 and 10 μM, FIG. 3
Experimental: as §4
The cell were clamped at a holding voltage of −50 mV, hyperpolarized to −110 mV, and then directly depolarized to 40 mV after 600 ms to record the whole cell potassium current (ITotal). To record the delayed […] rectifier potassium current (IK), the cells were first depolarized to −50 mV, maintained for 50 ms, and then depolarized to 40 mV. 10 μM HJ-70 was administered by perfusion to detect drug efficacy, and 5 mM TEA was administered as a positive control. […]
as §2

[7] = test system: IA current of hippocampal neurons; assay: Transient outward potassium current (IA) in hippocampal neurons; assay type: cell-based, SD rats; details: 1, 3 and 10 μM, FIG. 3
Experimental: as §4
The cell were clamped at a holding voltage of −50 mV, hyperpolarized to −110 mV, and then directly depolarized to 40 mV after 600 ms to record the whole cell potassium current (ITotal). To record the delayed […] rectifier potassium current (IK), the cells were first depolarized to −50 mV, maintained for 50 ms, and then depolarized to 40 mV. […]
as §2

[8] = test system: sodium current in hippocampal neurons; assay: Sodium current in hippocampal neurons; assay type: cell-based, SD rats; details: 10 μM; membrane potential clamped at −90 mV
Experimental: as §4
9 mg of protease (type XXIII, Sigma) was weighed in advance, 5 mg of bovine serum albumin (BSA, Shanghai Sangon) and 5 mg of trypsin inhibitor (Sigma-Aldrich) were weighed, and 3 mg/mL and 5 mg/mL enzyme and termination solutions were respectively prepared with a dissociation solution, and incubated at 32° C. water bath. 2 SD rats that were 1-7 days old (Shanghai Slack Experimental Animal Co., Ltd.) were decapitated and cut the cortex and skull to take out the complete brain, which was divided into two parts along the midline of the brain, and the hippocampus was located in the temporal lobe of the brain. The temporal lobe cortex was removed to expose the hippocampal gyrus for dissection. Then the hippocampus tissue was slightly moistened with the dissociation solution, and cut into thin slices transversely with a razor blade. […]

[9] = target: T2, TRESK channel (Homo sapiens, UniProt Q7Z418); assay: TRESK channel current, transiently expressed in CHO-K1 cells (patch clamp); assay type: cell-based
T2 construct: expressed in transfected cells; host or cells: CHO-K1 cells (ATCC), transient co-transfection with EGFP plasmid at 9:1
T2 sequence (Q7Z418 1-384): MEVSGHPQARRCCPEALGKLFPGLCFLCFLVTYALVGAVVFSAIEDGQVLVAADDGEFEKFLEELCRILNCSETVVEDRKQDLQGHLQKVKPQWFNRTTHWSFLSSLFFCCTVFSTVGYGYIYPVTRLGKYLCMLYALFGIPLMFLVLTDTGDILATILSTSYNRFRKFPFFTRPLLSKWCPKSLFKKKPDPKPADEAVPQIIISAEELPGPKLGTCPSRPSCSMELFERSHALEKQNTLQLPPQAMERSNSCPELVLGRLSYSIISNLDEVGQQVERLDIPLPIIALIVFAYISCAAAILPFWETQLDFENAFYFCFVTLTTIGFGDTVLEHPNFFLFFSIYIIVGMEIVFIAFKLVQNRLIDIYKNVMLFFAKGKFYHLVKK
Source text: as §3

[10] = test system: IA current in DRG neurons; assay: Transient outward potassium current (IA) in DRG neurons; assay type: cell-based, C57BL/6 mouse; details: whole-cell patch clamp; IA = total minus IK; 3 μM and 10 μM in FIG. 2
Source text: as §1, §2

[11] = test system: TASK1/TASK3 (KCNK3/KCNK9); details: in neurons; read-out: half-effective dose for inhibition of TASK1/TASK3 channels; cited from earlier work
[12] = target: T3, TRESK (KCNK18) (Homo sapiens, UniProt Q7Z418); details: in neurons; read-out: half-effective dose for inhibition of TRESK channels; cited from earlier work
T3 sequence (Q7Z418 1-384): T2 sequence (Q7Z418 1-384)

| Compound | reversibility of IK current inhibition after washout ([1]; DRG neurons, washout, FIG. 2 G) | inhibition of IK current in DRG neurons ([1]; whole-cell patch clamp, 3 μM and 10 μM in FIG. 2) | effect on evoked action potential firing frequency of DRG [2] | inhibition of Kv2.1 channel-mediated currents [3] | pain behavioral response induced by plantar injection of formalin (licking time, pain score) [4] | effect on spontaneous firing of cultured hippocampal neurons [5] | inhibition of IK current of hippocampal neurons [6] | effect on IA current of hippocampal neurons [7] | effect on sodium current in hippocampal neurons [8] | inhibition of TRESK channel current ([9]; 10 μM, CHO-K1 cells, FIG. 5 C and D) | inhibitory activity on TRESK (K2P) compared with hydroxy-α-sanshool ([9]; comparison with reported half-effective dose of hydroxy-α-sanshool) | effect on IA current in DRG neurons [10] | IC50 [11] | IC50 [12] |
| --- | --- | --- | --- | --- | --- | --- | --- | --- | --- | --- | --- | --- | --- | --- |
| O=c1c2ccccc2nc2n1CCc1c-2n(CCCO)c2ccccc12 [HJ-70, N-13-n-propanol rutaecarpine] | completely eluted | dose-dependently inhibited | significantly inhibited | completely inhibited | dose-dependently alleviate | significantly inhibit | reversibly and dose-dependently inhibited | without affecting | no effect | almost completely inhibited | stronger than that of hydroxy-α-sanshool | no significant effect | – | – |
| C/C=C/C=C/C=C\CC/C=C/C(=O)NCC(C)(C)O [hydroxy-α-sanshool] | – | – | – | – | – | – | – | – | – | – | – | – | ~50 µM | ~50 µM |

From patent US20240270745A1, “ISOQUINOLINE ALKALOID COMPOUND, AND PREPARATION METHOD THEREFOR AND USE THEREOF” (SHANGHAI INSTITUTE OF MATERIA MEDICA, CHINESE ACADEMY OF …, priority 2021, published 2024)
